In US20260256733A1, “COMPOSITIONS AND METHODS FOR MODULATING STRESS AND USES THEREOF” (BRIGHTSEED, INC., priority 2023, published 2026):

Assays:
mGlu2 [1] = target: T1, mGlu2 (Homo sapiens, UniProt Q14416); test: Standardized bioassay protocol, mGluR2 antagonist/NAM assay; format: cell-based; details: for Activity Level: 20 μM, mGlu2 activity, control at 100%, greater than control indicates NAM or antagonist; for Bioactivity Class: assay performed at 20 μM
Experimental: (§1) A standardized bioassay protocol was followed as illustrated in FIG. 3. In the standardized bioassay protocol, an assay buffer of HBSS with 1% HEPES was used. Cells were seeded overnight at 10,000 cells/well in 20 μl plating reagent. Controls for the experiment were an agonist of L-glutamic acid (AC156212500), agonist of LY354740 (fisher part #: 32-465-0), antagonist of LY341495 (fisher part #: 12-095-0), PAM of BINA (fisher part #: 40-485-0), and NAM of (decoglurant (fisher part #: 50-203-0742).
(§2) The results are illustrated in Table 7 and FIGS. 4 and 5. FIG. 4 illustrates mGlu2 activity greater than control (dotted red line at 100%) is indicative of an mGlu2 negative allosteric modulator or antagonist. The assay was performed at 20 μM. FIG. 5 illustrates mGlu2 activity less than the control (at 100%) is indicative of a mGlu2 positive allosteric modulator or agonist. The assay was performed at 100 μM.

mGlu2 [2] = target: T1, mGlu2; test: Standardized bioassay protocol, mGluR2 agonist/PAM assay; format: cell-based; details: for Activity Level: 100 μM, mGlu2 activity, control at 100%, less than control indicates PAM or agonist; for Bioactivity Class: assay performed at 100 μM
Experimental: as §1, §2

T1 sequence (Q14416 19-872): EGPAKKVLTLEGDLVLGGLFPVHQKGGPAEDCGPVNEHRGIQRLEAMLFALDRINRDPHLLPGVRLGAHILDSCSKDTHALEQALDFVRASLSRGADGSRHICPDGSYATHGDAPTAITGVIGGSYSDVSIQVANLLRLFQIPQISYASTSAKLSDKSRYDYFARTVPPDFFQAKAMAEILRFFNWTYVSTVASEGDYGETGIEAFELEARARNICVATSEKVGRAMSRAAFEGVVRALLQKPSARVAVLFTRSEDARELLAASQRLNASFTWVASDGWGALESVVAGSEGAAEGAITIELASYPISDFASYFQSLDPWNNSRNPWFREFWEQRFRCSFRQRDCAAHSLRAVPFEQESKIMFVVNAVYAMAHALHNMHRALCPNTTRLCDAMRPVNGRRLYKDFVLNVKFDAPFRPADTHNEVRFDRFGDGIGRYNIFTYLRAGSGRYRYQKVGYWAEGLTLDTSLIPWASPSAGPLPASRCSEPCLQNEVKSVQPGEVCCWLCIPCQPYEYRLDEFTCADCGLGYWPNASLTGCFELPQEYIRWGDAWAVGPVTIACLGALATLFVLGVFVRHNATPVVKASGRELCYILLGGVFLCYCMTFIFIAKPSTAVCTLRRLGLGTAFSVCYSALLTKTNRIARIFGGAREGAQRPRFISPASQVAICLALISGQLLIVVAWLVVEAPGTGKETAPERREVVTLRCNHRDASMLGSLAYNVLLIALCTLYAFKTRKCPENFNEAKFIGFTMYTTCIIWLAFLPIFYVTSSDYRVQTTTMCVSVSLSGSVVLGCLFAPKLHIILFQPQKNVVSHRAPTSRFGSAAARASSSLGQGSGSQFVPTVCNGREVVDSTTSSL

| Compound | Activity Level (mGlu2 [1]) | Bioactivity Class (mGlu2 [1]) | Activity Level (mGlu2 [2]) | Bioactivity Class (mGlu2 [2]) |
| --- | --- | --- | --- | --- |
| O=C1c2cccc(O)c2C(=O)C2C(O)=CC(CO)=CC12 (stereo not drawn) [Compound 4] | 20 μM/191.200% | Antagonist/NAM |  |  |
| O=C1c2cccc(O)c2C(=O)c2c(O)cccc21 [Compound 6] | 20 μM/142.558% | Antagonist/NAM |  |  |
| CC(=O)Oc1cccc2c1C(=O)c1c(OC(C)=O)cc(C(=O)O)cc1C2=O [Compound 7] | 20 μM/195.543% | Antagonist/NAM |  |  |
| O=C(O)c1cc(O)c2c(c1)C(=O)c1cccc(O)c1C2=O [Compound 8] | 20 μM/749.225% | Antagonist/NAM |  |  |
| COc1cc(O[C@@H]2O[C@H](CO)[C@@H](O)[C@H](O)[C@H]2O)c2c(O)c(C(C)=O)c(C)cc2c1 [Compound 9] | 20 μM/107.501% | Antagonist/NAM |  |  |

Further lines, results first:

| Activity Level (mGlu2 [1]) | Bioactivity Class (mGlu2 [1]) | Activity Level (mGlu2 [2]) | Bioactivity Class (mGlu2 [2]) | Compound |
| --- | --- | --- | --- | --- |
| 20 μM/152.609% | Antagonist/NAM |  |  | Cn1c(=O)[nH]c(=O)c2[nH]cnc21 [Compound 10] |
| 20 μM/153.003% | Antagonist/NAM |  |  | Cn1cnc2c1c(=O)[nH]c(=O)n2C [Compound 11] |
|  |  | 100 μM/25.688% | Agonist/PAM | COC(=O)C1OC(=O)c2cc(O)c(O)c(O)c2C1C(CC(=O)O)C(=O)OC1C(COC(=O)c2ccc(O)c(O)c2)OC(OC(=O)c2cc(O)c(O)c(O)c2)C(O)C1OC(=O)c1cc(O)c(O)c(O)c1 (stereo not drawn) [Compound 12] |
|  |  | 100 μM/9.870% | Agonist/PAM | Cc1cc(O)c2c(c1)C(=O)c1cc(O)cc(O)c1C2=O [Compound 13] |
